{"source": "paper PMC7585637", "about": "(Biomolecules & Therapeutics, 2020)", "target": "T1, SIRT1 (Homo sapiens, UniProt Q96EB6)", "T1 sequence (Q96EB6 2-747)": "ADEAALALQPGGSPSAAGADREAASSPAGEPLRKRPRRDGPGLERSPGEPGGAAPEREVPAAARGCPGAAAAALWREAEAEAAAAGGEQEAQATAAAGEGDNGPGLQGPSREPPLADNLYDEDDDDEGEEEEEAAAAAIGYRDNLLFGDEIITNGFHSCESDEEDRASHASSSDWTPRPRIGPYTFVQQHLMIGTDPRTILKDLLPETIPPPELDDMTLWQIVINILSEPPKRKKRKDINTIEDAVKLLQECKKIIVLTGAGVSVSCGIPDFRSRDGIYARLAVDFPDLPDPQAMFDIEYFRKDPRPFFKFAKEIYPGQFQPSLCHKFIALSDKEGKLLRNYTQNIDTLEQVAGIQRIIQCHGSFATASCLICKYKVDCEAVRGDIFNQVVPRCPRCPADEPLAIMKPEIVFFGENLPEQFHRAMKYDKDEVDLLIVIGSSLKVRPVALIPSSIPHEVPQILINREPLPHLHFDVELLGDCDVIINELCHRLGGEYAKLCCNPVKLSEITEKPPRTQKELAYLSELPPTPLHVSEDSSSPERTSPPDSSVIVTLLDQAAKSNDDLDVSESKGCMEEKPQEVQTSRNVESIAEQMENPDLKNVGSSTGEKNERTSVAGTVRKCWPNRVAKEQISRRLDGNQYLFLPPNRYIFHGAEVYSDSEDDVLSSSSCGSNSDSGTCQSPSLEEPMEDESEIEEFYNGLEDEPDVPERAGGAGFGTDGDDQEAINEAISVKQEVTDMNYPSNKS", "test": "Fluor-de-Lys SIRT1 fluorometric deacetylase assay", "format": "biochemical"}
{"smiles": "CC(C)(C)c1cc(C=C2C(=O)NC(=S)NC2=O)cc(C(C)(C)C)c1O", "note": "[MHY2256, 5-(3,5-Di-tert-butyl-4-hydroxybenzylidene)-2-thioxodihydropyrimidine-4,6(1H,5H)-dione]", "values": [{"measurement": "IC50", "value": 1.02, "unit": "µM"}]}
